PMC11643962, “Exploring 4,7-Disubstituted Pyrimido[4,5-d]pyrimidines as Antiviral and Anticancer Agents” (Molecules, 2024)
Like-named read-outs stand apart in the source and are kept apart here.

Tests used:
[1] = system: HCoV-229E; experiment: Antiviral CPE reduction assay, HCoV-229E in HEL299 cells; format: cell-based, human coronavirus 229E; conditions: Human coronavirus 229E, HEL 299, MTS, mean ± SD of two or three independent experiments
[2] = system: HCoV-OC43; experiment: Antiviral CPE reduction assay, HCoV-OC43 in HEL299 cells; format: cell-based, human coronavirus OC43; conditions: Betacoronavirus 1, OC43, HEL 299, MTS, mean ± SD of two or three independent experiments
[3] = system: HCoV-NL63; experiment: Antiviral CPE reduction assay, HCoV-NL63 in Hep3B cells; format: cell-based, human coronavirus NL63; conditions: Human coronavirus NL63, MTS, mean ± SD of two or three independent experiments
[4] = system: influenza A/H1N1 (A/Ned/378/05); experiment: Antiviral CPE reduction assay, influenza A/H1N1 in MDCK cells; format: cell-based, influenza A virus; conditions: Influenza A virus, read-out: Antiviral Activity (EC50) Influenza H1N1
[5] = system: influenza A/H3N2 (A/HK/7/87); experiment: Antiviral CPE reduction assay, influenza A/H3N2 in MDCK cells; format: cell-based, influenza A virus; conditions: Influenza A virus, read-out: Antiviral Activity (EC50) Influenza H3N2
[6] = system: influenza B (B/Ned/537/05); experiment: Antiviral CPE reduction assay, influenza B in MDCK cells; format: cell-based, influenza B virus; conditions: Influenza B virus, MDCK, read-out: Antiviral Activity (EC50) Influenza B
[7] = system: respiratory syncytial virus A (RSV A Long); experiment: Antiviral CPE reduction assay, RSV A Long in Hep2 cells; format: cell-based; conditions: human respiratory syncytial virus
[8] = system: herpes simplex virus-1 (HSV-1 KOS); experiment: Antiviral CPE reduction assay, HSV-1 KOS in HEL299 cells; format: cell-based; conditions: Human alphaherpesvirus 1, HEL 299, MTS, mean ± SD, no unit printed on the supplement page (Table 2 of the same screen is in µM)
[9] = system: yellow fever virus (YFV 17D); experiment: microbe, parasite or virus in culture; format: cell-based; conditions: Yellow fever virus, Vero C1008, read-out: Antiviral activity (EC50) YFV 17D
[10] = system: Zika virus (ZikV mr766); experiment: Antiviral CPE reduction assay, Zika virus mr766 in VeroE6 cells; format: cell-based; conditions: Zika virus, Vero C1008, MTS, mean ± SD, no unit printed on the supplement page (Table 2 of the same screen is in µM)
[11] = in vitro; conditions: human
[12] = in vitro; conditions: human; remark: listed apart in the source
[13] = in vitro; conditions: dog
[14] = in vitro; conditions: human; remark: listed apart in the source
[15] = in vitro; conditions: African green monkey
[16] = system: HL-60 (acute myeloid leukemia); experiment: MTS proliferation assay, HL-60; conditions: Homo sapiens, HL-60, 72 h, read-out: Anti-Proliferative Activity (IC50) HL-60
[17] = system: K-562 (chronic myeloid leukemia); experiment: MTS proliferation assay, K-562; conditions: Homo sapiens, K562, 72 h, read-out: Anti-Proliferative Activity (IC50) K-562
[18] = system: Z-138 (non-Hodgkin lymphoma); experiment: MTS proliferation assay, Z-138; conditions: Homo sapiens, Z-138, 72 h, read-out: Anti-Proliferative Activity (IC50) Z-138
[19] = system: LN-229 (glioblastoma); experiment: MTS proliferation assay, LN-229; conditions: Homo sapiens, LN-229, 72 h, read-out: Anti-Proliferative Activity (IC50) LN-229
[20] = system: DND-41 (acute lymphoblastic leukemia); experiment: MTS proliferation assay, DND-41; conditions: Homo sapiens, DND41, 72 h, read-out: Anti-Proliferative Activity (IC50) DND-41
[21] = system: Capan-1 (pancreatic adenocarcinoma); experiment: MTS proliferation assay, Capan-1; conditions: Homo sapiens, CAPAN-1, 72 h, read-out: Anti-Proliferative Activity (IC50) Capan-1
[22] = system: HCT-116 (colorectal carcinoma); experiment: MTS proliferation assay, HCT-116; conditions: Homo sapiens, HCT-116, 72 h, read-out: Anti-Proliferative Activity (IC50) HCT-116
[23] = system: NCI-H460 (lung carcinoma); experiment: MTS proliferation assay, NCI-H460; conditions: Homo sapiens, NCI-H460, 72 h, read-out: Anti-Proliferative Activity (IC50) NCI-H460
[24] = H1N1, MDCK cells, CPE reduction, MTS, mean ± SD of two or three independent experiments
[25] = H3N2, MDCK cells, CPE reduction, MTS, mean ± SD of two or three independent experiments
[26] = HEp-2, Hep2 cells, CPE reduction, MTS, mean ± SD of two or three independent experiments, read-out: Antiviral Activity (EC50) RSV A Long
[27] = HEp-2, read-out: Antiviral Activity (EC50) RSV A Long

SMILES | EC50 [1] | EC50 [2] | EC50 [3] | EC50 [4, 24] | EC50 [5, 25] | EC50 [6] | EC50 [7, 26] | EC50 [8] | EC50 [9] | EC50 [10] | CC50 [13] | CC50 [15] | IC50 [16] | IC50 [17] | IC50 [18] | IC50 [19] | IC50 [20] | IC50 [21] | IC50 [22] | IC50 [23] | further results
CN(C)CCNc1ncc2c(Nc3cccc4c3CCCC4)ncnc2n1 [Compound 7a, N^2-[2-(Dimethylamino)ethyl]-N^5-(5,6,7,8-tetrahydronaphthalen-1-yl)pyrimido[4,5-d]pyrimidine-2,5-diamine] | 15.8 ± 0.9 µM | 27.7 ± 0.6 µM | > 50 µM | > 50 µM | > 50 µM | > 50 µM | > 50 µM | > 50 µM | > 50 µM | > 50 µM | > 50 µM | > 50 µM | > 100 µM | 87 ± 1.3 µM | 58.9 ± 1.8 µM | > 100 µM | 57.9 ± 2 µM | > 100 µM | > 100 µM | > 100 µM | melting point: 176.3 °C; CC50 [11]: > 50 µM; CC50 [12]: > 50 µM; CC50 [14]: > 50 µM
C#Cc1cccc(Nc2ncnc3nc(NCCN(CC)CC)ncc23)c1 [Compound 7i, N^2-[2-(diethylamino)ethyl]-N^5-(3-ethynylphenyl)pyrimido[4,5-d]pyrimidine-2,5-diamine] | 19.3 ± 6.6 µM | ≥ 39.8 µM | > 50 µM | > 50 µM | > 50 µM | > 50 µM | > 50 µM | > 50 µM | > 50 µM | > 50 µM | > 50 µM | > 50 µM | > 100 µM | 51.8 ± 3.5 µM | 62.1 ± 0.8 µM | > 100 µM | 62.6 ± 0.1 µM | > 100 µM | > 100 µM | > 100 µM | 
C#Cc1cccc(Nc2ncnc3cc(OCCOC)c(OCCOC)cc23)c1 [Erlotinib, erlotinib, reference compound] | 22.5 ± 10 µM | > 100 µM | > 100 µM | > 100 µM | > 100 µM | > 100 µM | > 100 µM | > 100 µM | > 100 µM | > 100 µM | > 100 µM | > 100 µM | 10.7 ± 0.1 µM | > 100 µM | > 100 µM | > 100 µM | > 100 µM | 18.6 ± 1.1 µM | > 100 µM | > 100 µM | CC50 [11]: > 100 µM; CC50 [12]: > 100 µM; CC50 [14]: > 100 µM
COc1cc([C@@H]2c3cc4c(cc3[C@@H](O[C@@H]3O[C@@H]5CO[C@@H](C)O[C@H]5[C@H](O)[C@H]3O)[C@H]3COC(=O)[C@H]23)OCO4)cc(OC)c1O [Etoposide, etoposide, reference compound] |  |  |  |  |  |  |  |  |  |  |  |  | 0.2 ± 0.01 µM | 6 ± 2 µM | 0.08 ± 0.03 µM | 3 ± 0.2 µM | 0.1 ± 0.02 µM | 0.1 ± 0.03 µM | 1.4 ± 0.09 µM | 2.2 ± 0.8 µM | 
C#Cc1cccc(Nc2ncnc3cc(OCCOC)c(OCCO)cc23)c1 [OSI-420, reference compound] | > 100 µM | > 100 µM | > 100 µM |  |  | > 100 µM |  | > 100 µM | > 100 µM | > 100 µM | > 100 µM | > 100 µM | > 100 µM | > 100 µM | > 100 µM | > 100 µM | > 100 µM | 41.7 ± 3.6 µM | > 100 µM | > 100 µM | EC50 ([4]; H1N1, MDCK): > 100 µM; EC50 ([5]; H3N2, MDCK): > 100 µM; EC50 [7, 27]: > 100 µM
CCC(CC)COC(=O)[C@H](C)N[P@](=O)(OC[C@H]1O[C@@](C#N)(c2ccc3c(N)ncnn23)[C@H](O)[C@@H]1O)Oc1ccccc1 [Remdesivir, remdesivir, reference compound] | 0.05 ± 0.04 µM | 0.14 ± 0.007 µM | 0.14 ± 0.04 µM |  |  |  | 0.008 ± 0.001 µM |  |  |  |  |  |  |  |  |  |  |  |  |  | CC50 [11]: > 10 µM
NC(=O)c1ncn([C@@H]2O[C@H](CO)[C@@H](O)[C@H]2O)n1 [Ribavirin, ribavirin, reference compound] | 38.9 ± 1.7 µM | 100 ± 19 µM | 39.9 ± 7.1 µM |  |  | 7.4 ± 0.8 µM |  |  | 24.5 µM | 104 µM | > 250 µM | > 250 µM |  |  |  |  |  |  |  |  | EC50 ([4]; H1N1, MDCK): 9.6 ± 1 µM; EC50 ([5]; H3N2, MDCK): 7.2 ± 1.6 µM; EC50 [7, 27]: 35.9 ± 1.3 µM
CC(N)C12CC3CC(CC(C3)C1)C2 (centres unmarked) [Rimantadine, rimantadine, reference compound] |  |  |  | 1.7 ± 0.5 µM | 0.6 ± 0.07 µM | > 100 µM |  |  |  |  | > 100 µM |  |  |  |  |  |  |  |  |  | 
CC(=O)N[C@H]1[C@H]([C@H](O)[C@H](O)CO)OC(C(=O)O)=C[C@@H]1N=C(N)N [Zanamivir, zanamivir, reference compound] |  |  |  | 0.6 ± 0.3 µM | 3 ± 0.2 µM | 0.4 ± 0.01 µM |  |  |  |  | > 100 µM |  |  |  |  |  |  |  |  |  | 
